The target of the assay is Bromodomain-containing protein 4 (Homo sapiens, UniProt O60885). In words: Time Resolved Fluorescence Resonance Energy Transfer (TR-FRET) Assay: The binding of compounds to bromodomain BRD4 (44-168), BRD4 (333-460), and BRD4 (1-477 or 44-460) was assessed using a time resolved fluorescent resonance energy transfer binding assay (1), that measures the binding of a fluorescently labeled probe molecule to the bromodomain protein. The bromodomain protein, fluorescent probe molecule (either a biotinylated histone peptide or a fluorescently labeled small molecule), and dose-responsed test compound are incubated together to reach thermodynamic equilibrium. In the absence of a test compound, the bromodomain and small molecule are bound, resulting in a high fluorescent signal. In the presence of a sufficient concentration of inhibitor, this intercation is disrupted resulting in a loss of fluorescent resonance energy transfer. On the technique in general: Time-resolved FRET reads energy transfer from a long-lived donor to a nearby acceptor.
Turning to `Cc1noc(C)c1-c1cc(C(N)=O)c2c(c1)c1ccc(N3CCCC3=O)cc1n2CC1CC1`, the IC50 is less than 50 nM.

For the molecule `Cc1noc(C)c1-c1cc(C(N)=O)c2c(c1)c1ccc(N3CCOCC3)cc1n2CC1CC1`, the IC50 was less than 5000 nM. With `COC(=O)Nc1ccc2c3cc(-c4c(C)noc4C)cc(C(N)=O)c3n(CC3CC3)c2c1`, the IC50 is less than 500 nM.

`Cc1noc(C)c1-c1cc(C(N)=O)c2c(c1)c1ccc(C(C)(C)O)cc1n2S(C)(=O)=O`: the IC50 is less than 50 nM. Consider `Cc1noc(C)c1-c1cc(C(N)=O)c2c(c1)c1ccc(S(C)(=O)=O)cc1n2S(=O)(=O)C1CC1`, for which the IC50 is less than 500 nM. With `Cc1noc(C)c1-c1cc(C(=O)NCC2CC2)c2c(c1)c1c(S(C)(=O)=O)cccc1n2CC1CC1` the figure was less than 500 nM; with `Cc1noc(C)c1-c1cc(C(N)=O)c2c(c1F)c1ccc(C(=O)N3C[C@@H](C)O[C@@H](C)C3)cc1n2CC1CC1`, less than 50 nM. On to `COC1CN(C(=O)c2ccc3c4cc(-c5c(C)noc5C)cc(C(N)=O)c4n(S(=O)(=O)C4CC4)c3c2)C1`, for which the 50% inhibitory concentration (IC50) was less than 50 nM.

The IC50 is the point on the concentration scale where inhibition reaches its midpoint.

Values taken from ChEMBL document CHEMBL5725474, “Carbazole compounds useful as bromodomain inhibitors” (2018).
